Earlier results on 2 molecules are cited in patent publication US20090325888A1, “Peptides having a health benefit and compositions comprising them” (priority 2005, published 2009).

One data set has as its target ACE (Homo sapiens, UniProt P12821).
The next data set relates to hypertensive humans. To be noted: in sour milk, Hata 1996.

Sequence of ACE (P12821 30-1306, species assumed): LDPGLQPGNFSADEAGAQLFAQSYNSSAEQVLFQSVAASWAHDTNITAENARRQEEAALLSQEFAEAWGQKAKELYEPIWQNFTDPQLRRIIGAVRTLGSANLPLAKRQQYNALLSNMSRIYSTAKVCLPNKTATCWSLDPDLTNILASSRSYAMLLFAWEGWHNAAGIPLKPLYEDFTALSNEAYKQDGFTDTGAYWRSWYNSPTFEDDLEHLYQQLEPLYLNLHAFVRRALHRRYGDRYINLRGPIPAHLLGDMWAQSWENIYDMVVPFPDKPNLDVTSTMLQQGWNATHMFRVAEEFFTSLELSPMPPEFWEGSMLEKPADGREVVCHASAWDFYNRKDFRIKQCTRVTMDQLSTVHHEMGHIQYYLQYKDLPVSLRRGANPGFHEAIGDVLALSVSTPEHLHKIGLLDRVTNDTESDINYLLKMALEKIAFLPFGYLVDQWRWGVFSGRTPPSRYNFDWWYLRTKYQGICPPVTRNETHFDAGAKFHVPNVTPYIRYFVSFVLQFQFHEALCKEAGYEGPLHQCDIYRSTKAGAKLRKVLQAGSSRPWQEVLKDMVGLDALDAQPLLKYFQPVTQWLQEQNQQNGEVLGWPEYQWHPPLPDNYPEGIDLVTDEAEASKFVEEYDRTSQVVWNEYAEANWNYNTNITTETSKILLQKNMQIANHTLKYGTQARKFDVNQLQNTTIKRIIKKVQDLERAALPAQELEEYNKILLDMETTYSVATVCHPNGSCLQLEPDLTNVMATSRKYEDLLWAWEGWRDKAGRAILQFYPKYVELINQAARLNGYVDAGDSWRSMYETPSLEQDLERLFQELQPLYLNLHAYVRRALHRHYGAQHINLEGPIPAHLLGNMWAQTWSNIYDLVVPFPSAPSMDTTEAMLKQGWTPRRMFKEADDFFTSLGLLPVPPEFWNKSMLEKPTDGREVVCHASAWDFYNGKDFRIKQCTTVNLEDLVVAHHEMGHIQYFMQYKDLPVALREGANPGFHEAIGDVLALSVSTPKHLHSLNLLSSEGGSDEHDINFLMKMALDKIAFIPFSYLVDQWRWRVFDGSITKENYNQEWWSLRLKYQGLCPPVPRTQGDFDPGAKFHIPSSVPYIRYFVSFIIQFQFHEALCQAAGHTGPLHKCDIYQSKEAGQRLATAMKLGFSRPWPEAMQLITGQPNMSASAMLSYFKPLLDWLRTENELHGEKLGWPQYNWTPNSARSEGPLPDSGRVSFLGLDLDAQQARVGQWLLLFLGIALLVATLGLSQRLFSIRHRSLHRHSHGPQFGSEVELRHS

Regarding `CC[C@H](C)[C@H](N)C(=O)N1CCC[C@H]1C(=O)N1CCC[C@H]1C(=O)O` [IPP], the “in vitro ACE inhibition” value at ACE (peptides in fermented milk products) was “in vitro ACE inhibition”. Further, the “blood pressure lowering effect” value in the data set with hypertensive humans was “blood pressure lowering effect”.

In general, IC50 refers to the concentration that inhibits the measured activity by half. As to “LPP: known ACE inhibiting tripeptide, β-casein f151-153 (UniProt P02666 166-168, looked up, fragment)”, the IC50 with ACE (Nakamura 1995, Aryoshi 1993, read-out: IC50 values reported earlier as ACEI peptides) was 9.6 µM.
